Columns and labels:
[1] = Displacement of dansyl-polymyxin from LPS; type: binding, P. aeruginosa; conditions: read-out: LPS binding affinity: peptide concentration to displace 50% of dansyl-polymyxin B from LPS; Tables 1, 4, 7
Summary of the method: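 Peptides titrated into 3 μg/mL P. aeruginosa LPS with 2.5 μM dansyl-polymyxin (~90% site saturation) in 5 mM sodium HEPES, pH 7.0; fluorescence decrease recorded. I50 (50% probe displacement) taken from the x-intercept of a double-reciprocal plot of percent inhibition versus inhibitor concentration.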

P. aeruginosa H187 = type: cell-based, Pseudomonas aeruginosa
Summary of the method: (§1)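 Minimum inhibitory concentrations come from a broth rather than agar assay, using LB medium, a final inoculum of 5×10^5 CFU/mL and overnight incubation at 37 °C. Values are in μg/ml.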

E. coli SC9252 = test: MIC, liquid-broth microtitre dilution; type: cell-based, Escherichia coli; conditions: unit from Table 10
Excerpt: (§2) The following bacterial strains were utilized: Escherichia coli UB1005 (wt) and its antibiotic supersusceptible derivative DC2 (Clark, 1984); Excherichia coli SC9251 and its polymixin B rasistant mutant pmrA SC9252 (Peterson, et al., 1987) Pseudomonas aeruginosa H187 (wt) (Angus, et al., 1987) and its antibiotic-sensitive derivative H188 (Zimmerman, W, Antimicrob. Agents Chemother. 18: 94-100, 1980); methicillin sensitive Staphylococcus aureus K147 (Kreiswirth, et al., 1983); Staphylococcus aureus SAP0017, a methicillin resistant clinical isolate from Dr. A. Chow (University of British Columia); Bacillus subtilis, an environmental wt lab strain. Enterococcus faecalis are ATCC 29212 cells and Staphylococcus epidermidis was a clinical isolate from Dr. D. Speert (University of British Columbia). Antifungal activity was tested using a clinical lab isolate of Candida albicans. Salmonella typhinurium C57 and C610 (Fields, P.I., et al., Science 243: 1059-1062 (1989) Corynebacterium xerosis was an environmental isolate (University of British Columbia).
(§3) It is now apparent that agar-based assays severely underestimate antifungal activity as well as activity against gram negative microorganisms (Kondejewski, et al., 1996). Consequently, in the studies reported herein, a liquid-broth method was used to measure the antibiotic properties of the peptides. […] Briefly, cells were grown overnight at 37° C. in LB and diluted in the same medium. Serial dilutions of antibiotics were added to the microtitre plates in a volume of 100 μL followed by 10 μL of bacteria to give a final inoculum of 5×10^5 CFU/mL. Plates were incubated at 37° C. overnight and MICs determined as the lowest antibiotic concentration that inhibited growth.

E. coli SC9251 = test: MIC, liquid-broth microtitre dilution; type: cell-based, Escherichia coli; conditions: unit from Table 10
Excerpt: as §2, §3

P. aeruginosa H188 = type: cell-based, Pseudomonas aeruginosa
Summary of the method: (§4)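 Antimicrobial activity is measured by a liquid-broth assay in LB at 37 °C overnight, starting from 5×10^5 CFU/mL. Values are minimal inhibitory concentrations, i.e. the lowest concentration that stops growth.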

Acholeplasma laidlawii = type: cell-based
Excerpt: According to another feature of the invention, GS14, which is apparently an unlikely antibacterial agent, is useful against mycoplasma infection. […] One use of such a compound is inclusion in tissue culture media, where mycoplasma contamination can pose serious problems in industrial applications of cell culture. […] Such concentrations can be determined according to standard methods known in the art.

C. xeroses = type: cell-based, Corynebacterium xerosis
Summary of the method: (§5)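 Liquid-broth microdilution: overnight LB cultures diluted and added to serial peptide dilutions at final 5×10^5 CFU/mL, incubated overnight at 37 °C. MIC is the lowest concentration inhibiting growth; C. albicans a clinical isolate, S. epidermidis clinical, C. xerosis environmental.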

E. faecalis = type: cell-based, Enterococcus faecalis
Summary of the method: as §4

[2] = tested on: gram positive microorganisms; type: cell-based
Excerpt: as §2, §3
The results from antimicrobial and hemolytic assays are combined to provide a “Therapeutic Index” (TI) for each peptide with respect to individual microorganisms. As reported herein, the TI is calculated as the hemolytic activity divided by the antimicrobial activity. The TI thus is a measure of specificity of the particular peptide for microbial membranes as opposed to human blood cell membranes. In the present studies, antimicrobial activities are reported as minimum inhibitory concentrations (MIC)—the lowest concentration of peptide (μg/ml) found to inhibit growth of the particular microbe. Hemolytic activity is reported as the concentration of peptide that effected complete lysis of blood cells after four hours. Thus, in the context of the present invention high TI values indicate microbial specificity and relative lack of toxicity.

S. epidermidis = type: cell-based, Staphylococcus epidermidis
Summary of the method: as §5

E. coli UB1005 = type: cell-based, Escherichia coli
Summary of the method: as §4

B. subtilis = type: cell-based, Bacillus subtilis
Summary of the method: as §5

S. typhinurium C587 = type: cell-based, Salmonella typhinurium
Summary of the method: as §4

S. typhinurium C610 = type: cell-based, Salmonella typhinurium
Summary of the method: as §4

E. coli DC2 = type: cell-based, Escherichia coli
Summary of the method: as §1

C. Albicans = type: cell-based, Candida albicans
Summary of the method: as §5

S. aureus SAP0017 = type: cell-based, Staphylococcus aureus
Summary of the method: (§6)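 MIC read-out, μg/ml, lowest peptide concentration with no growth after overnight incubation at 37 °C in LB liquid broth. Inoculum 5×10^5 CFU/mL from overnight cultures. Therapeutic index = concentration giving complete blood-cell lysis at 4 h divided by MIC.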

S. aureus K147 = type: cell-based, Staphylococcus aureus
Summary of the method: as §6

CC(C)C[C@@H]1NC(=O)[C@H](CCCCN)NC(=O)[C@H](C(C)C)NC(=O)[C@@H]2CCCN2C(=O)[C@@H](Cc2ccc(O)cc2)NC(=O)[C@H](CC(C)C)NC(=O)[C@H](CCCCN)NC(=O)[C@H](C(C)C)NC(=O)[C@H](CCCCN)NC(=O)[C@H](CC(C)C)NC(=O)[C@@H]2CCCN2C(=O)[C@@H](Cc2ccc(O)cc2)NC(=O)[C@H](C(C)C)NC(=O)[C@H](CCCCN)NC1=O [GS14]
IC50 [1]: 3 µM | Minimum Inhibitory Concentration (activity) (P. aeruginosa H187; H187): >200 µg/mL | Antibiotic activity (Table 11, ring analogs) (P. aeruginosa H187; P. aeruginosa H187, unit from Table 10): 400 μg/ml | Antibiotic activity (Table 11, ring analogs) (E. coli SC9252): 190 μg/ml | Antibiotic activity (Table 11, ring analogs) (E. coli SC9251): 400 μg/ml | Minimum Inhibitory Concentration (activity) (P. aeruginosa H188; H188): >200 µg/mL | Antibiotic activity (Table 11, ring analogs) (P. aeruginosa H188; P. aeruginosa H188, unit from Table 10): 400 μg/ml | MIC (Acholeplasma laidlawii): less than 30 μg/ml | Minimum Inhibitory Concentration (activity) (C. xeroses): 9 µg/mL | Minimum Inhibitory Concentration (activity) (E. faecalis): 1.5 µg/mL | MIC against four of the gram positive microorganisms tested [2]: > 200 µg/mL | Minimum Inhibitory Concentration (activity) (S. epidermidis): 200 µg/mL | Antibiotic activity (Table 11, ring analogs) (E. coli UB1005; E. coli UB1005, unit from Table 10): 400 μg/ml | Minimum Inhibitory Concentration (activity) (E. coli UB1005; UB1005): >200 µg/mL | Minimum Inhibitory Concentration (activity) (B. subtilis): >200 µg/mL | Minimum Inhibitory Concentration (activity) (S. typhinurium C587): >200 µg/mL | Minimum Inhibitory Concentration (activity) (S. typhinurium C610): >200 µg/mL | Minimum Inhibitory Concentration (activity) (E. coli DC2; DC2): >200 µg/mL | Antibiotic activity (Table 11, ring analogs) (E. coli DC2; E. coli DC2, unit from Table 10): 190 μg/ml | Minimum Inhibitory Concentration (activity) (C. Albicans): 150 µg/mL | Minimum Inhibitory Concentration (activity) (S. aureus SAP0017): >200 µg/mL | Minimum Inhibitory Concentration (activity) (S. aureus K147): >200 µg/mL

From US6358921B1, “Antimicrobial peptide compositions and method” (priority 1996, dated 2002)
